Laboratory results published in ChEMBL document CHEMBL4823300, “Design, synthesis and anticancer activity of sulfenylated imidazo-fused heterocycles” (Bioorg Med Chem Lett, 2021).
Calls of active or inactive are those of the source. The calls are words filed in the database; no cut-off is given here.

Key:
MDA-MB-231 = test: Anticancer activity against human MDA-MB-231 cells assessed as growth inhibition incubated for 48 hrs by MTT assay; format: functional, cell-based; details: MDA-MB-231, 48 h
HepG2 [1] = test: Anticancer activity against human HepG2 cells assessed as growth inhibition incubated for 48 hrs by MTT assay; format: functional, cell-based; details: HepG2, 48 h
HeLa = test: Anticancer activity against human HeLa cells assessed as growth inhibition incubated for 48 hrs by MTT assay; format: functional, cell-based
A549 = test: Anticancer activity against human A549 cells assessed as growth inhibition incubated for 48 hrs by MTT assay; format: functional, cell-based; details: A549, 48 h
U-87 MG = test: Anticancer activity against human U-87 MG cells assessed as growth inhibition incubated for 48 hrs by MTT assay; format: functional, cell-based, U-87MG ATCC
SK-MEL-28 = test: Anticancer activity against human SK-MEL-28 cells assessed as growth inhibition incubated for 48 hrs by MTT assay; format: functional, cell-based; details: SK-MEL-28, 48 h
DU-145 = test: Anticancer activity against human DU-145 cells assessed as growth inhibition incubated for 48 hrs by MTT assay; format: functional, cell-based; details: DU-145, 48 h
HEK293 = test: Anticancer activity against human HEK293 cells assessed as growth inhibition incubated for 48 hrs by MTT assay; format: cell-based; details: HEK293, 48 h
NIH3T3 = test: Anticancer activity against mouse NIH3T3 cells assessed as growth inhibition incubated for 48 hrs by MTT assay; format: cell-based; details: NIH3T3, 48 h
HepG2 [2] = test: Cell cycle arrest in human HepG2 cells assessed as accumulation at SubG1 phase at 5 uM (reference value: 7.13%); format: functional
HepG2 [3] = test: Cell cycle arrest in human HepG2 cells assessed as accumulation at SubG1 phase at 10 uM (reference value: 7.13%); format: functional
HepG2 [4] = test: Cell cycle arrest in human HepG2 cells assessed as accumulation at G0/G1 phase at 5 uM (reference value: 92.33%); format: functional
HepG2 [5] = test: Cell cycle arrest in human HepG2 cells assessed as accumulation at G0/G1 phase at 10 uM (reference value: 92.33%); format: functional
HepG2 [6] = test: Cell cycle arrest in human HepG2 cells assessed as accumulation at S phase at 5 uM (reference value: 4.66%); format: functional
HepG2 [7] = test: Cell cycle arrest in human HepG2 cells assessed as accumulation at S phase at 10 uM (reference value: 4.66%); format: functional
HepG2 [8] = test: Cell cycle arrest in human HepG2 cells assessed as accumulation at G2/M phase at 5 uM (reference value: 3.72%); format: functional
HepG2 [9] = test: Cell cycle arrest in human HepG2 cells assessed as accumulation at G2/M phase at 10 uM (reference value: 3.72%); format: functional
HepG2 [10] = test: Induction of apoptosis in human HepG2 cells assessed as nuclear condensation at 5 to 10 uM incubated for 48 hrs by Hoechst staining based assay relative to control; format: functional, cell-based; details: dose 5-10 µM
HepG2 [11] = test: Induction of apoptosis in human HepG2 cells assessed as decrease in mitochondrial membrane potential at 5 to 10 uM incubated for 48 hrs by JC-1 staining based assay relative to control; format: functional, cell-based; details: dose 5-10 µM
HepG2 [12] = test: Induction of apoptosis in human HepG2 cells assessed as live cells at 5 uM incubated for 48 hrs by annexin V-FITC/propidium iodide (AV/PI) dual staining assay (reference value: 91.01%); format: functional
HepG2 [13] = test: Induction of apoptosis in human HepG2 cells assessed as early apoptotic cells at 5 uM incubated for 48 hrs by annexin V-FITC/propidium iodide (AV/PI) dual staining assay (reference value: 3.87%); format: functional
HepG2 [14] = test: Induction of apoptosis in human HepG2 cells assessed as late apoptotic cells at 5 uM incubated for 48 hrs by annexin V-FITC/propidium iodide (AV/PI) dual staining assay (reference value: 4.07%); format: functional
HepG2 [15] = test: Induction of apoptosis in human HepG2 cells assessed as necrotic cells at 5 uM incubated for 48 hrs by annexin V-FITC/propidium iodide (AV/PI) dual staining assay (reference value: 1.06%); format: functional
HepG2 [16] = test: Induction of apoptosis in human HepG2 cells assessed as live cells at 10 uM incubated for 48 hrs by annexin V-FITC/propidium iodide (AV/PI) dual staining assay (reference value: 91.01%); format: functional
HepG2 [17] = test: Induction of apoptosis in human HepG2 cells assessed as early apoptotic cells at 10 uM incubated for 48 hrs by annexin V-FITC/propidium iodide (AV/PI) dual staining assay (reference value: 3.87%); format: functional
HepG2 [18] = test: Induction of apoptosis in human HepG2 cells assessed as late apoptotic cells at 10 uM incubated for 48 hrs by annexin V-FITC/propidium iodide (AV/PI) dual staining assay (reference value: 4.07%); format: functional
HepG2 [19] = test: Induction of apoptosis in human HepG2 cells assessed as necrotic cells at 10 uM incubated for 48 hrs by annexin V-FITC/propidium iodide (AV/PI) dual staining assay (reference value: 1.06%); format: functional

Row | IC50 (MDA-MB-231) [µM] | IC50 (HepG2 [1]) [µM] | IC50 (HeLa) [µM] | IC50 (A549) [µM] | IC50 (U-87 MG) [µM] | IC50 (SK-MEL-28) [µM] | IC50 (DU-145) [µM] | Structure (SMILES) | IC50 (HEK293) [µM] | IC50 (NIH3T3) [µM] | further results
1 | > 100 | 67.9 | 86.7 | 94.3 | > 100 | > 100 | 83.3 | Cc1ccc(-c2nc3ccccn3c2Sc2ccccc2)cc1 | > 100 | > 100 | 
2 | 17.8 | 15.7 | 64.2 | 35.2 | 65.5 | 67.5 | 76.5 | N#Cc1ccc(-c2nc3ccccn3c2Sc2ccccc2)cc1 | > 100 | > 100 | 
3 | 23.5 | 7.6 | 30 | 13.6 | 26.9 | 67.7 | 52.1 | CSc1ccc(-c2nc3ccccn3c2Sc2ccccc2)cc1 | > 100 | > 100 | Activity (HepG2 [2]): 11.43%; Activity (HepG2 [3]): 1.57%; Activity (HepG2 [4]): 83.03%; Activity (HepG2 [5]): 63.48%; Activity (HepG2 [6]): 0.56%; Activity (HepG2 [7]): 1.07%; Activity (HepG2 [8]): 10.85%; Activity (HepG2 [9]): 34.97%; Activity (HepG2 [10]): Active; Activity (HepG2 [11]): Active; Activity (HepG2 [12]): 65.61%; Activity (HepG2 [13]): 18.94%; Activity (HepG2 [14]): 15.17%; Activity (HepG2 [15]): 0.28%; Activity (HepG2 [16]): 48.22%; Activity (HepG2 [17]): 27.63%; Activity (HepG2 [18]): 23.93%; Activity (HepG2 [19]): 0.22%
4 | 73.1 | 59.3 | 74.1 | 69.8 | > 100 | 77.3 | 92.3 | Clc1ccc(Sc2c(-c3cccs3)nc3ccccn23)cc1 | 93 | 86.1 | 
5 | 94.5 | 63.1 | 79.9 | 71.5 | > 100 | 81.5 | 95.1 | Cc1ccc2nc(-c3ccc(Cl)cc3)c(Sc3ccccc3)n2c1 | > 100 | > 100 | 
6 | 55.8 | 15.7 | 29.3 | 24.4 | > 100 | 76.9 | 56.3 | Clc1ccc2nc(-c3ccccc3)c(Sc3ccccc3)n2c1 | > 100 | > 100 | 
7 | 69.2 | 17.1 | 19.9 | 16.9 | > 100 | 85.3 | 24.1 | c1ccc(Sc2c(-c3cccs3)nc3ccccn23)cc1 | > 100 | > 100 | 
8 | 72.1 | 57.8 | 64.1 | 75.1 | > 100 | > 100 | 78 | Clc1ccc(-c2nc3sc4ccccc4n3c2Sc2ccccc2)cc1 | > 100 | > 100 | 
9 | 76.7 | 47.8 | 72.6 | 54.2 | > 100 | > 100 | 71.7 | c1ccc(Sc2c(-c3ccccc3)nc3ccc(-c4ccccc4)cn23)cc1 | > 100 | > 100 | 
10 | 57.6 | 16.9 | 36.6 | 27.7 | 62.8 | 74 | 76.7 | Clc1ccc(Sc2c(-c3ccccc3)nc3ccccn23)cc1 | 91.4 | 88.7 | 
11 | > 100 | 54.2 | > 100 | 58.4 | > 100 | 83.9 | 76.8 | COc1ccc(-c2nc3ccccn3c2Sc2ccccc2)cc1 | > 100 | 91.7 | 
12 | 24.1 | 13.6 | 34.6 | 19.6 | 56.2 | 67.3 | 20.8 | CS(=O)(=O)c1ccc(-c2nc3ccccn3c2Sc2cccc3ccccc23)cc1 | 83.2 | 86.4 | 
13 | 72.7 | 13.2 | 70.6 | 23.2 | 77.2 | 61.9 | 67.8 | CS(=O)(=O)c1ccc(-c2nc3ccccn3c2Sc2ccccc2)cc1 | > 100 | > 100 | 
14 | 1.6 | 1.8 | 2.1 |  | 1.7 | 1.8 | 1.4 | COc1cccc2c1C(=O)c1c(O)c3c(c(O)c1C2=O)C[C@@](O)(C(=O)CO)C[C@@H]3O[C@H]1C[C@H](N)[C@H](O)[C@H](C)O1 [DOXORUBICIN] |  |  | 
15 | 54.9 | 22.3 | 34.2 | 28.1 | 62.6 | 63.2 | 45 | c1ccc(Sc2c(-c3ccccc3)nc3sc4ccccc4n23)cc1 | > 100 | > 100 | 
16 | 75.6 | 19.5 | 32.2 | 21.5 | > 100 | > 100 | 22.4 | COc1cccc(OC)c1-c1nc2ccccn2c1Sc1ccccc1 | > 100 | > 100 | 
17 | 69.3 | 9.9 | 33.1 | 17.9 | > 100 | > 100 | 60.6 | c1ccc(Sc2c(-c3cccc4ccccc34)nc3ccccn23)cc1 | > 100 | > 100 | Activity (HepG2 [2]): 3.7%; Activity (HepG2 [3]): 8.52%; Activity (HepG2 [4]): 86.33%; Activity (HepG2 [5]): 70.35%; Activity (HepG2 [6]): 2.54%; Activity (HepG2 [7]): 0.36%; Activity (HepG2 [8]): 7.29%; Activity (HepG2 [9]): 25.53%; Activity (HepG2 [10]): Active; Activity (HepG2 [11]): Active; Activity (HepG2 [12]): 77.51%; Activity (HepG2 [13]): 10.32%; Activity (HepG2 [14]): 11.9%; Activity (HepG2 [15]): 0.26%; Activity (HepG2 [16]): 55.27%; Activity (HepG2 [17]): 25.45%; Activity (HepG2 [18]): 18.94%; Activity (HepG2 [19]): 0.34%
18 | 24.5 | 13.9 | 62 | 22 | 30.2 | 73.1 | 30.7 | Clc1ccc(-c2nc3ccccn3c2Sc2ccccc2)cc1 | > 100 | > 100 | 
19 | 62.8 | 49.6 | 76 | 72.9 | 58.6 | 69.3 | 85.9 | c1ccc(Sc2c(-c3ccsc3)nc3ccccn23)cc1 | 91.7 | 94.1 | 
20 | > 100 | 50.2 | 52.1 | 56.2 | 61.7 | > 100 | 84.5 | CCc1ccc(-c2nc3ccccn3c2Sc2ccccc2)cc1 | > 100 | > 100 | 
21 | 38 | 14.6 | 65.2 | 23.8 | 82.1 | 95.7 | 57.7 | Cc1ccc(-c2nc3ccc(C)cn3c2Sc2ccccc2)cc1 | > 100 | > 100 | 
